Results from the NIST ThermoML archive (doi:10.1021/acs.jced.5b00985).
Numbers after ± are expanded uncertainties.

Experiment: mn = molality of the nth substance listed, in mol/kg
Settings: 100.8 kPa, Liquid, Pycnometric method

mass density (313.15 K, m1 = 0.0946): 1002.1 ± 2 kg/m3
mass density (343.15 K, m1 = 0.2563): 1001.1 ± 2.3 kg/m3
mass density (343.15 K, m1 = 0.2612): 1001.3 ± 2.1 kg/m3
Compound: [NH4+].[O]=[V](=[O])[O-] [ammonium vanadate] + O
